Assay results taken from US9593305B2, “Differentiation of pluripotent stem cells” (Janssen Biotech, Inc., priority 2008, dated 2017).

Test system: H1 human embryonic stem cells
Test: Compounds and growth factors with low dose activin A (Example 9, Table 9)
Assay type: cell-based
Procedure: Clusters of H1 human embryonic stem cells were grown on reduced growth factor […]™ (Invitrogen; Cat #356231)-coated tissue culture plastic. Cells were passaged using collagenase (Invitrogen; Cat #17104-019) treatment and gentle scraping, washed to remove residual enzyme, and plated with even dispersal at a ratio of 1:1 (surface area) on reduced growth factor […]™-coated 96-well black plates (Packard ViewPlates; PerkinElmer; Cat #6005182) using volumes of 100 μl/well. Cells were allowed to attach as clusters and then recover log phase growth over a 1 to 3 day period, feeding daily with MEF conditioned medium supplemented with 8 ng/ml bFGF (R&D Systems; Cat #233-FB). Plates were maintained at 37° C., 5% CO2 in a humidified box throughout the duration of assay.
Stocks of growth factors purchased from R&D Systems were EGF (Cat #236-EG), FGF4 (Cat #235-F4), PDGF-A (Cat #221-AA), PDGF-D (Cat #1159-SB), PDGF-A/B (Cat #222-AB), VEGF (Cat #293-VE), and GDF-8 (Cat #788-08). Activin A was purchased from PeproTech (Cat #). Muscimol was purchased from Tocris (Cat #0289). All growth factors were solubilized in PBS with 0.1% BSA (Sigma; Cat #A7888) and stored frozen at −80° C. Muscimol was solubilized in 100% DMSO (Sigma; Cat #D2650) and stored frozen at −80° C. The compounds were available as 5 mM stocks in 96-well plate format, solubilized in 100% DMSO and stored at −80° C. The compounds were further diluted to an intermediate concentration of 0.2 mM in 50 mM HEPES (Invitrogen; Cat #15630-080), 20% DMSO and stored at 4° C. All growth factors and inhibitors were prepared in a deep well, 96-well polypropylene plate, diluted to 5× intermediate stocks in DMEM:F12 base medium at the beginning of assay and stored at 4° C.
A secondary screening assay was conducted, testing in triplicate and feeding on alternate days over the four-day assay timeframe. Assays were initiated by aspirating culture medium from each well followed by three washes in PBS to remove residual growth factors and serum. Test volumes of 80 μl per well were added back containing DMEM:F12 base medium (Invitrogen; Cat #11330-032) supplemented with 0.625% FCS (HyClone; Cat #SH30070.03), 25 ng/ml Wnt3a (R&D Systems), 12.5 ng/ml activin A, and 3.125 μM compound plus 20 μl 5× stock of growth factor or small molecule to yield a final concentration of 0.5% FCS, 20 ng/ml Wnt3a, 10 ng/ml activin A, and 2.5 μM compound. All remaining growth factors were tested at a final assay concentration of 50 ng/ml (EGF, FGF4, PDGF-A, PDGF-A/B, VEGF), with the exception of GDF-8 used at 25 ng/ml. Final assay concentration of muscimol was 20 μM. Positive control wells (100 μl/well) contained the same base medium supplemented with 0.5% FCS, 20 ng/ml Wnt3a and 10 ng/ml (low dose) or 100 ng/ml (high dose) activin A. Negative control wells (100 μl/well) contained the same base medium with 0.5% FCS and 20 ng/ml Wnt3a, omitting activin A.
Positive control wells (100 μl/well) contained the same base medium supplemented with 2% FCS and 10 ng/ml or 100 ng/ml activin A, omitting Wnt3a. Negative control wells (100 μl/well) contained the same base medium with 2% FCS, omitting both activin A and Wnt3a.
At the conclusion of four-days of culture, assay plates were washed twice with PBS, fixed with 4% paraformaldehyde (Alexis Biochemical; Cat #ALX-350-011) at room temperature for 20 minutes, then washed three times with PBS and permeabilized with 0.5% Triton X-100 (Sigma; Cat #T8760-2) for 20 minutes at room temperature. Cells were washed again three times with PBS and blocked with 4% chicken serum (Invitrogen; Cat #16110082) in PBS for 30 minutes at room temperature. Primary antibody (goat anti-human SOX17; R&D Systems; cat #AF1924) was diluted 1:100 in 4% chicken serum and added to each well for one hour at room temperature. […]

[1] = 10 ng/ml AA + compound + EGF + FGF4 + PDGF-A + Muscimol + Wnt3a
[2] = 10 ng/ml AA + compound + EGF + FGF4 + PDGF-A + VEGF + PDGF-D + Muscimol + GDF8 + Wnt3a
[3] = 10 ng/ml AA + compound + EGF + FGF4 + PDGF-AB + VEGF + Wnt3a
[4] = 10 ng/ml AA + compound + EGF + FGF4 + PDGF-AB + Wnt3a
[5] = 10 ng/ml AA + compound + EGF + FGF4 + Wnt3a
[6] = 10 ng/ml AA + compound + EGF + Wnt3a
[7] = 10 ng/ml AA + compound + FGF4 + Wnt3a

Structure (SMILES): O=C1CCN2CCN(CC2)Cc2cc(Cl)cc(c2)Nc2ncnc(n2)-c2cncc(c2)CCCN1 [Compound 34, 5-Chloro-1,8,10,12,16,22,26,32-octaazapentacyclo[24.2.2.1˜3.7˜0.1˜9,13˜0.1˜14.18˜]tritriaconta-3(33), 4,6,9(32), 10,12,14(31), 15,17-nonaen-23-one]
- Cell Number, % of positive control [1]: 233.85 % of positive control
- Cell Number, Average Total Cell Number [1]: 17890
- Sox17 Expression, % of positive control [1]: 258.30 % of positive control
- Sox17 Expression, Average Total Intensity [1]: 2.88E+08
- Cell Number, % of positive control [2]: 240.02 % of positive control
- Cell Number, Average Total Cell Number [2]: 18362
- Sox17 Expression, % of positive control [2]: 309.74 % of positive control
- Sox17 Expression, Average Total Intensity [2]: 3.45E+08
- Cell Number, % of positive control [3]: 203.58 % of positive control
- Cell Number, Average Total Cell Number [3]: 15574
- Sox17 Expression, % of positive control [3]: 232.70 % of positive control
- Sox17 Expression, Average Total Intensity [3]: 2.59E+08
- Cell Number, % of positive control [4]: 233.65 % of positive control
- Cell Number, Average Total Cell Number [4]: 17875
- Sox17 Expression, % of positive control [4]: 241.07 % of positive control
- Sox17 Expression, Average Total Intensity [4]: 2.68E+08
- Cell Number, % of positive control [5]: 185.07 % of positive control
- Cell Number, Average Total Cell Number [5]: 14158
- Sox17 Expression, % of positive control [5]: 215.35 % of positive control
- Sox17 Expression, Average Total Intensity [5]: 2.40E+08
- Cell Number, % of positive control [6]: 189.89 % of positive control
- Cell Number, Average Total Cell Number [6]: 14527
- Sox17 Expression, % of positive control [6]: 204.84 % of positive control
- Sox17 Expression, Average Total Intensity [6]: 2.28E+08
- Cell Number, % of positive control [7]: 174.15 % of positive control
- Cell Number, Average Total Cell Number [7]: 13323
- Sox17 Expression, % of positive control [7]: 196.86 % of positive control
- Sox17 Expression, Average Total Intensity [7]: 2.19E+08
- Cell Number, % of positive control (10 ng/ml AA + compound + Wnt3a): 46.91 % of positive control
- Cell Number, Average Total Cell Number (10 ng/ml AA + compound + Wnt3a): 3589
- Sox17 Expression, % of positive control (10 ng/ml AA + compound + Wnt3a): 63.08 % of positive control
- Sox17 Expression, Average Total Intensity (10 ng/ml AA + compound + Wnt3a): 7.02E+07
